The test system of assay [1] is IBD (UC and CD) patients. Kind of assay: Primary clinical response to Vedolizumab in IBD patients, cohort 1. Type of assay: in vivo, human. As to conditions: number of patients with 0—None / 1—partial / 2—full response; for clinical 2 w (0/1/2): 2 weeks; for clinical 14 w (0/1/2): 14 weeks; for clinical 26 w (0/1/2): 26 weeks; for clinical 52 w (0/1/2): 52 weeks. The text has this:
The exploratory study cohort consisted of 73 whole blood samples from 22 IBD (UC and CD) patients, who received Vedolizumab treatment at the Rambam Health Care Campus (RHCC) and met the study inclusion criteria. Patients that had past exposure to Vedolizumab, or patients who had active infection including febrile diseases or intra-abdominal or perianal abscess were excluded.
Samples were collected at the following time-points: pretreatment, 2 weeks and 14 weeks post first treatment and following one year of treatment for those patients who received long-term care. Patients were classified for response by clinical score after one-year follow-up and were clinically characterized as detailed in table 2.

The subject of assay [2] is TNFα expression. Kind of assay: Whole blood treated with Vedolizumab, LPA or combination; TNFα expression by qPCR. The assay is classed as cell-based, human. As to conditions: whole blood from healthy donors, 3 hours at 37 degrees, Vedolizumab 600 μg/ml, LPA 1 μM, fold-induction over untreated control. The protocol: FIGS. 11A-B: […] synergistic effect between Vedolizumab and LPA in-Vitro. (11A-B) Bar charts showing inflammatory cytokine expression including (11A) TNFα and (11B) IL-1β post incubation with Vedolizumab (600 μg/ml), LPA (1 μM) and co-incubation of the two substances, using qPCR for quantification. Un-treated whole blood basal expression served as control and values were expressed as fold-induction over control. Data were pooled from three independent experiments. Significance was calculated using Wilcoxon-test (two-sided; μ=1)
The combined effect of Vedolizumab and LPA was next tested on blood cells. Whole blood from healthy donors was treated with Vedolizumab, LPA or a combination for 3 hours at 37 degrees and pro-inflammatory cytokine expression was measured. Untreated whole blood was used as a control. […] This may be due to the fact that there are 6 LPA receptors and it appears that antagonism of only one of them is not sufficient to completely counter act the effect of the LPA.

In assay [3] the test system is Tregs in intestinal tissue. Kind of assay: Estimated Treg proportion scores in intestinal tissue by xCell deconvolution of public dataset GEO73661. The assay is classed as in vivo, human. As to conditions: post-treatment vs baseline, xCell estimate from GEO73661. As for the experimental part:
Deconvolved estimated Tregs proportion scores in intestinal tissue and peripheral blood at baseline and in different time points post-treatment in responding and non-responding patients were evaluated usind xCell.
xCell, which is a computational deconvolution method based on ssGSEA enrichment of cell specific signatures for estimation of abundance scores of immune cell types from the gene expression data, was used. Only cells that had non-zero values in at least 75% of the samples were included.
Estimated cell proportions in intestinal tissue were tested using a publicly available dataset (GEO73661). […] Although Treg accumulation is observed in blood of non-responders, tissue Tregs are not reduced.

For the substance Vedolizumab, in assay [1] (Non-responders (n = 10)), the “clinical 2 w (0/1/2)” value is 5/5/0, the “clinical 14 w (0/1/2)” value is on record as 7/2/1, the “clinical 26 w (0/1/2)” value was 8/2/0 and the “clinical 52 w (0/1/2)” value was 10/0/0. In assay [1] (Responders (n = 12)), the “clinical 2 w (0/1/2)” value is recorded as 1/7/0, the “clinical 14 w (0/1/2)” value was 1/5/2, the “clinical 26 w (0/1/2)” value is 0/4/5 and the “clinical 52 w (0/1/2)” value was 0/0/12. For the same substance, the TNFα expression result in assay [2] was “neither Vedolizumab nor LPA alone had an effect”. Further, the “Tregs frequency in intestinal tissue” value in assay [3] (non-responders) is given as “unaffected”. For the same substance, the “Tregs frequency in intestinal tissue” value in assay [3] (responding patients) is on record as “reduces Tregs frequency”.
In the case of lysophosphatidic acid [LPA], the TNFα expression result in assay [2] is reported as “neither Vedolizumab nor LPA alone had an effect”.

These data come from patent publication US20210262032A1, “DETERMINING RESPONDERS TO INFLAMMATION TREATMENT” (RAMBAM MED-TECH LTD., priority 2018, published 2021).
